Data as given in patent US20120053053A1, “PYRIMIDINE DERIVATIVES AND THEIR USE AS HERBICIDES” (SYNGENTA CROP PROTECTION, LLC, priority 2009, published 2012).

Experiments:
Type in all cases: in vivo
[1] = test system: Echinochloa crus-galli (ECHCG); experiment: Pre-emergence biological efficacy (percentage damage); details: Echinochloa crus-galli, 312 h, dose 1,000 g/ha, evaluated after 13 days, 100=total damage, 0=no damage
Summary of the method: (§1)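 In this pre-emergence test, pots of standard soil sown with seed are treated after one day of glasshouse cultivation using compound formulated in acetone/water (50:50) containing 0.5% Tween 20, dosed at 250 or 1000 g/ha. Growth continues at 24/16 °C day/night with 14 h light and 65% humidity, and damage is rated after 13 days.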

[2] = test system: Alopecurus myosuroides (ALOMY); experiment: as above; details: Alopecurus myosuroides, 312 h, dose 1,000 g/ha, evaluated after 13 days, 100=total damage, 0=no damage
Summary of the method: as §1

[3] = test system: Ipomea hederaceae (IPOHE); experiment: as above; details: Ipomoea hederacea, 312 h, dose 1,000 g/ha, evaluated after 13 days, 100=total damage, 0=no damage
Summary of the method: as §1

Solanum nigrum (SOLNI) [4] = experiment: as above; details: Solanum nigrum, 312 h, dose 1,000 g/ha, evaluated after 13 days, 100=total damage, 0=no damage
Summary of the method: as §1

Setaria faberi (SETFA) [5] = experiment: as above; details: Setaria faberi, 312 h, dose 1,000 g/ha, evaluated after 13 days, 100=total damage, 0=no damage
Summary of the method: as §1

[6] = test system: Amaranthus retoflexus (AMARE); experiment: as above; details: Amaranthus retroflexus, 312 h, dose 1,000 g/ha, evaluated after 13 days, 100=total damage, 0=no damage
Summary of the method: as §1

[7] = test system: Echinochloa crus-galli (ECHCG); experiment: Post-emergence biological efficacy (percentage damage); details: Echinochloa crus-galli, 312 h, dose 1,000 g/ha, evaluated after 13 days, 100=total damage, 0=no damage
Summary of the method: (§2)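 Pot-grown plants are cultivated 8 days under glasshouse conditions (24/16 °C, 14 h light, 65% humidity), sprayed at a dose of 250 or 1000 g/ha, kept under the same conditions with twice-daily watering, and rated for damage after 13 days.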

[8] = test system: Alopecurus myosuroides (ALOMY); experiment: as above; details: Alopecurus myosuroides, 312 h, dose 1,000 g/ha, evaluated after 13 days, 100=total damage, 0=no damage
Summary of the method: as §2

[9] = test system: Ipomea hederaceae (IPOHE); experiment: as above; details: Ipomoea hederacea, 312 h, dose 1,000 g/ha, evaluated after 13 days, 100=total damage, 0=no damage
Summary of the method: as §2

Solanum nigrum (SOLNI) [10] = experiment: as above; details: Solanum nigrum, 312 h, dose 1,000 g/ha, evaluated after 13 days, 100=total damage, 0=no damage
Summary of the method: as §2

Setaria faberi (SETFA) [11] = experiment: as above; details: Setaria faberi, 312 h, dose 1,000 g/ha, evaluated after 13 days, 100=total damage, 0=no damage
Summary of the method: as §2

[12] = test system: Amaranthus retoflexus (AMARE); experiment: as above; details: Amaranthus retroflexus, 312 h, dose 1,000 g/ha, evaluated after 13 days, 100=total damage, 0=no damage
Summary of the method: as §2

| SMILES | pest or weed control at 1000 g/ha [1] | pest or weed control at 1000 g/ha [2] | pest or weed control at 1000 g/ha [3] | pest or weed control at 1000 g/ha (Solanum nigrum (SOLNI) [4]) | pest or weed control at 1000 g/ha (Setaria faberi (SETFA) [5]) | pest or weed control at 1000 g/ha [6] | pest or weed control at 1000 g/ha [7] | pest or weed control at 1000 g/ha [8] | pest or weed control at 1000 g/ha [9] | pest or weed control at 1000 g/ha (Solanum nigrum (SOLNI) [10]) | pest or weed control at 1000 g/ha (Setaria faberi (SETFA) [11]) | pest or weed control at 1000 g/ha [12] |
| --- | --- | --- | --- | --- | --- | --- | --- | --- | --- | --- | --- | --- |
| C=Cc1c(N)nc(-c2ccc(Cl)c(OC)c2F)nc1C(=O)OC [Compound 27-61, 4-Amino-2-(4-chloro-2-fluoro-3-methoxyphenyl)-5-ethenyl-6-methoxycarbonyl-pyrimidine] | 90% | 90% | 90% | 100% | 90% | 100% | 90% | 90% | 80% | 80% | 100% | 100% |
| C=C(C)c1c(N)nc(-c2ccc(Cl)c(OC)c2F)nc1C(=O)OC [Compound 27-63, 4-Amino-2-(4-chloro-2-fluoro-3-methoxyphenyl)-6-methoxycarbonyl-5-(prop-1-en-2-yl)-pyrimidine] | 80% | 50% | 100% | 100% | 50% | 100% | 70% | 60% | 90% | 90% | 90% | 100% |
| C=C(OCC)c1c(N)nc(-c2ccc(Cl)c(OC)c2F)nc1C(=O)OC [Compound 27-67] | 20% | 20% | 40% | 100% | 10% | 30% | 10% | 0% | 60% | 80% | 10% | 40% |
| COC(=O)c1nc(-c2ccc(Cl)c(OC)c2F)nc(N)c1C=C(C)C [Compound 27-69, 4-Amino-2-(4-chloro-2-fluoro-3-methoxyphenyl)-6-methoxycarbonyl-5-(2-methylprop-1-enyl)-pyrimidine] | 30% | 40% | 30% | 100% | 60% | 100% | 10% | 40% | 40% | 80% | 40% | 90% |
| C=Cc1c(N)nc(-c2cc(F)c(Cl)c(F)c2)nc1C(=O)OC [Compound 30-61, 4-Amino-2-(4-chloro-3,5-difluorophenyl)-5-ethenyl-6-methoxycarbonyl-pyrimidine] | 0% | 0% | 0% | 20% | 0% | 0% | 0% | 0% | 10% | 80% | 0% | 10% |
| CCc1c(N)nc(-c2ccc(C(F)(F)F)cc2)nc1C(=O)OC [Compound 31-42, 4-amino-5-ethyl-6-methoxycarbonyl-2-(4-trifluoro-methylphenyl)-pyrimidine] | 0% | 0% | 0% | 0% | 0% | 0% | 0% | 0% | 0% | 10% | 0% | 0% |
| COC(=O)c1nc(-c2ccc(C(F)(F)F)cc2)nc(N)c1C(C)=O [Compound 31-53, 4-amino-6-methoxycarbonyl-5-methylcarbonyl-2-(4-trifluoromethylphenyl)-pyrimidine] | 90% | 80% | 90% | 100% | 90% | 100% | 100% | 90% | 90% | 100% | 100% | 100% |
| C=Cc1c(N)nc(-c2ccc(C(F)(F)F)cc2)nc1C(=O)OC [Compound 31-61, 4-Amino-5-ethenyl-6-methoxycarbonyl-2-(4-trifluoromethyl-phenyl)-pyrimidine] | 0% | 0% | 0% | 0% | 0% | 10% | 0% | 20% | 10% | 70% | 0% | 70% |
| C/C=C/c1c(N)nc(-c2ccc(C(F)(F)F)cc2)nc1C(=O)OC [Compound 31-62, 4-amino-6-methoxycarbonyl-5-prop-1-enyl-2-(4-tri-fluoromethylphenyl)-pyrimidine] | 0% | 0% | 0% | 0% | 0% | 20% | 0% | 0% | 50% | 50% | 10% | 30% |
| C=CCc1c(N)nc(-c2ccc(C(F)(F)F)cc2)nc1C(=O)OC [Compound 31-63, 4-Amino-6-methoxycarbonyl-5-(prop-1-en-3-yl)-2-(4-trifluoromethyl-phenyl)-pyrimidine] | 0% | 0% | 0% | 0% | 0% | 0% | 0% | 0% | 40% | 50% | 0% | 40% |
| C=C(C)c1c(N)nc(-c2ccc(C(F)(F)F)cc2)nc1C(=O)OC [Compound 31-64, 4-Amino-6-methoxycarbonyl-5-(prop-1-en-2-yl)-2-(4-trifluoromethyl-phenyl)-pyrimidine] | 0% | 0% | 0% | 0% | 0% | 0% | 0% | 0% | 60% | 60% | 20% | 40% |
| C=C(OCC)c1c(N)nc(-c2ccc(C(F)(F)F)cc2)nc1C(=O)OC [Compound 31-67, 4-amino-5-(1-ethoxyethenyl)-6-methoxycarbonyl-2-(4-trifluoromethylphenyl)-pyrimidine] | 0% | 0% | 0% | 0% | 0% | 0% | 0% | 0% | 80% | 80% | 0% | 50% |
| CC(O)c1c(N)nc(-c2ccc(C(F)(F)F)cc2)nc1CO (stereo not drawn) [Compound 31-372, 4-amino-5-(1-hydroxyethyl)-6-hydroxymethyl-2-(4-trifluoromethylphenyl)-pyrimidine] | 0% | 0% | 0% | 0% | 0% | 0% | 10% | 10% | 30% | 30% | 30% | 20% |
